Results taken from patent US12433863B2, “Pharmaceutical compositions and uses directed to lysosomal storage disorders” (INTRABIO LIMITED, priority 2016, dated 2025).

What was measured:
[1] = system: wild-type (Npc1^+/+) mice; assay: In vivo mouse study in wild-type (Npc1+/+) littermates (weight, gait, motor function)
Method: Wild-type (Npc1^+/+) littermates were used as a control.
Separate groups of Npc1^−/− and Npc1^+/+ mice were left untreated, as controls.
Animals were weighed twice a week. Weights were averaged (mean) across all mice in each group and compared.
Gait analysis was performed on mice at eight weeks of age using a CatWalk® 15.0 system according to manufacturer's instructions (Noldus, Nottingham, UK). Five runs were recorded per animal.
CatWalk® parameters measured were: • 1. Stand Mean: average duration (s) of paws in contact with glass plate; • 2. Step Cycle: duration (s) between two consecutive contacts of the same paw; • 3. Duty Cycle: percentage of time paws in contact with plate compared with time to complete a step cycle; • 4. Step Sequence (AB): percentage of time spent walking in LF-RH-RF-LH alternating pattern (LF: left front; RH: right hind; RF: right front; LH left hind); • 5. Cadence: step per seconds in a trial; • 6. Diagonal Support: percentage of time with simultaneous contact of diagonal paws with the glass plate (RF&LH or RH&LF). Motor Function Analysis
Motor function analysis was performed on mice at eight and nine weeks of age using an Open Field Activity Monitor according to manufacturer's instructions (Linton Instruments, Amlogger Software). Each mouse was placed in a plastic cage with bedding and analysed for five minutes. Rears were counted manually.
Motor function parameters measured were: • 1. Centre Rearing: mice rearing on hind legs unsupported; • 2. Rearing: mice rearing on hind legs with and without the support of cage walls; • 3. Activity: regular movement of the animal including walks; • 4. Front to Back (FR) count: movement of the animal from front to back of the cage; • 5. Active Time: duration (s/min) of activeness regardless of movement; • 6. Mobile Time: duration (s/min) of mobility; • 7. Rearing Time: duration of any rearing.

[2] = system: patients with cerebellar ataxia; settings: cited from earlier work

Compound: CC(=O)NC(CC(C)C)C(=O)O (racemic) [acetyl-DL-leucine]
- Effect on weight gain ([1]; 0.1 g/kg from weaning, three to 10 weeks of age): no significant effect
- Gait properties versus untreated littermates ([1]; 0.1 g/kg, eight weeks of age): no significant difference
- Motor function properties versus untreated littermates ([1]; 0.1 g/kg, nine weeks of age): no significant difference
- Benefit in cerebellar ataxia, another case series ([2]; Pelz et al. 2015): did not find benefit
- Temporal gait variability, quantitative gait analysis ([2]; Schniepp et al. 2015): improved temporal gait variability
- Cerebellar ataxia symptoms, case series ([2]; Strupp et al. 2013): symptomatic improvement of cerebellar ataxia
